Test results from US5714508A, “Bicycle Derivatives of imidazole” (Roussel Uclaf, priority 1993, dated 1998).

Experiments:
angiotensin II receptor = biological target: T1, angiotensin II receptor (Rattus norvegicus, UniProt P25095); assay: Test on the angiotensin II receptor (displacement of 125I angiotensin II from rat liver membranes); assay type: binding; conditions: rat liver membrane preparation, 25° C., 150 minutes, Tris buffer pH 7.4, read-out: IC50 in Nanomoles
T1 construct: A fresh membrane preparation obtained from rat's liver was used; from tissue; host or cells: rat liver membranes
T1 sequence (P25095 1-359): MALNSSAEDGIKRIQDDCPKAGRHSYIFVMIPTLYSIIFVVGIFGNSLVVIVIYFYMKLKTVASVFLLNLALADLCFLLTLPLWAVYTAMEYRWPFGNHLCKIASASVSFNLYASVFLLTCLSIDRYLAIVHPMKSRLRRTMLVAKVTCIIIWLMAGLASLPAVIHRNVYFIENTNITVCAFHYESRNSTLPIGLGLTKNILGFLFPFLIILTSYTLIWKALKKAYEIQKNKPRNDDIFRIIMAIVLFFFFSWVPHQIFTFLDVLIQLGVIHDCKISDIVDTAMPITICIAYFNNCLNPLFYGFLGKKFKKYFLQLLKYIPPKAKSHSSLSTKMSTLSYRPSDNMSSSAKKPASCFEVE
Procedure: 1--Test on the angiotensin II receptor
A fresh membrane preparation obtained from rat's liver was used and the tissue was ground up in a polytron in a 50 mM Tris buffer pH 7.4. The grinding process was followed by 3 centrifugations at 30,000 g for 15 minutes with intermediate taking up of the pellets in the Tris buffer pH 7.4. The last pellets were suspended in an incubation buffer (20 mM Tris, 135 mM NaCl, 10 mM KCl, 5 mM glucose, 10 mM MgCl2, 0.3 mM PMSF, 0.1 mM bacitracin, 0.2% BSA. 2 ml aliquoted fractions were distributed in hemolysis tubes and 125I angiotensin II (25,000 DPM/tube) and the product under test were added. The product was first tested at 3×10^-5 M three times. When the product tested displaced more than 50% of the radioactivity linked specifically to the receptor, it was tested again in a range of 7 concentrations to determine the concentration which inhibited 50% of the radioactivity linked specifically to the receptor. In this way, the 50% inhibiting concentration was determined.
The non-specific bond was determined by the addition of a product of Example 94 of European Patent No. 0,253,310 at 10^-5 M (three times). After incubation at 25° C. for 150 minutes, the suspension was put in a water-bath at 0° C. for 5 minutes, filtered under vacuum, rinsed with a Tris pH 7.4 buffer and the radioactivity was counted in the presence of scintillating Triton. The result was expressed directly as a 50% inhibiting concentration (IC50), that is to say the concentration of product studied, expressed in […], necessary to displace 50% of the specific radioactivity fixed to the receptor studied.

angiotensin II = assay: Test of the antagonistic activity of angiotensin II in a demedullated rat (diastolic arterial pressure); assay type: in vivo, Male Sprague Dawley rats; conditions: iv, venous route, injected 5 minutes before angiotensin II (0.75 micrograms/kg), pressure effects, read-out: 50% Inhibitory Doses
Procedure: 2--Test of the antagonistic activity of angiotensin II in a demedullated rat
Male Sprague Dawley rats weighing 250 to 350 g were anaesthetized by an intraperitoneal injection of sodium pentobarbital (60 mg/kg). The diastolic arterial pressure was recorded with a heparinated catheter (PE50) introduced into the left carotid of the animal and connected to a pressure processor (Gould, Pressure Processor) via a Gould pressure sensor. A catheter was introduced into the right jugular of the animal for the injection of the molecules to be studied. The animal was placed under assisted respiration and a bilateral section of the vagus nerves was carried out. The rat was then demedullated.
After a sufficient period of stabilization, study of the antagonism of the compound vis-a-vis angiotensin II (Hypertensin Ciba) was started in the following way.
1--Three consecutive injections of angiotensin II (0.75 micrograms/kg) spaced 15 minutes apart which allowed a reproducible and stable pressure response to be obtained. […]
The pressure effects of the angiotensin II in the presence of the antagonist were expressed as a percentage of the pressure effects of the angiotensin II administered alone. The 50% inhibitory dose of the studied effect was thus determined. […]

Row | Structure (SMILES) | IC50 (angiotensin II receptor) [nM] | ED50 (angiotensin II) [mg/kg]
1 | CCCCc1nc2c(n1Cc1ccc(-c3ccccc3S(=O)(=O)NC(=O)NCCC)cc1)C(=O)CCS2 [Example 3, 4'-[(2-butyl-6,7-dihydro-7-oxo-thiopyrano-(2,3-d)imidazol-1-(5H)-yl)-methyl]-N-[(propylamino)-carbonyl]-(1,1,'-biphenyl)-2-sulfonamide] | 1.3 | 0.08
2 | CCCCc1nc2c(n1Cc1ccc(-c3ccccc3S(=O)(=O)NC(=O)OCC)cc1)C(=O)CCS2 [Example 4] | 0.2 | 0.09
3 | CCCCc1nc2c(n1Cc1ccc(-c3ccccc3S(=O)(=O)NC(=O)NCCC)cc1)C(=NO)CCS2 [Example 7, 4'-[(2-butyl-7-(hydroxyimino)-1,5,6,7-tetrahydro-thiopyrano[2,3-d)-imidazol-1-yl)-methyl]-N-[(propylamino)-carbonyl]-(1,1'-biphenyl)-2-sulfonamide] | 5.3 | –
